From patent US20170190705A1, “Compositions and Methods for Inhibiting BMP” (THE BRIGHAM AND WOMAN'S HOSPITAL, INC., priority 2014, published 2017)
Where two headings read alike, the source gives them in different places.

Legend:
Type in all cases: biochemical
[1] = biological target: FLT-1 (Homo sapiens, UniProt P17948); assay: Kinome profiling FLT-1; details: read-out: Inhibitory activity FLT-1; for inhibition at 0.1 µM: 100 nM
Protocol: (§1) . The kinome-wide selectivity was determined following the methods previously reported by Mohedas et al., ACS Chem Biol 2013, 8, 1291-1302 and Sanvitale et al., PLoS One 2013, 8, e62721.

[2] = biological target: PASK (Homo sapiens, UniProt Q96RG2); assay: Kinome profiling PASK; details: read-out: Inhibitory activity PASK; for inhibition at 0.1 µM: 100 nM
Protocol: as §1

[3] = biological target: MSK2 (Homo sapiens, UniProt O75676); assay: Kinome profiling MSK2; details: read-out: Inhibitory activity MSK2; for inhibition at 0.1 µM: 100 nM
Protocol: as §1

[4] = biological target: PIM-1 (Homo sapiens, UniProt P11309); assay: Kinome profiling PIM-1; details: read-out: Inhibitory activity PIM-1; for inhibition at 0.1 µM: 100 nM
Protocol: as §1

[5] = biological target: CDK2/cyclinA (Homo sapiens, UniProt P24941); assay: Kinome profiling CDK2/cyclinA; details: read-out: Inhibitory activity CDK2/cyclinA; for inhibition at 0.1 µM: 100 nM
Protocol: as §1

[6] = biological target: SRPK1 (Homo sapiens, UniProt Q96SB4); assay: Kinome profiling SRPK1; details: read-out: Inhibitory activity SRPK1; for inhibition at 0.1 µM: 100 nM
Protocol: as §1

[7] = biological target: P70S6KB1 (Homo sapiens, UniProt P23443); assay: Kinome profiling P70S6KB1; details: read-out: Inhibitory activity P70S6KB1; for inhibition at 0.1 µM: 100 nM
Protocol: as §1

[8] = biological target: CK1-γ3 (Homo sapiens, UniProt Q9Y6M4); assay: Kinome profiling CK1-γ3; details: read-out: Inhibitory activity CK1-γ3; for inhibition at 0.1 µM: 100 nM
Protocol: as §1

[9] = biological target: MSSK1 (Homo sapiens, UniProt Q9UPE1); assay: Kinome profiling MSSK1; details: read-out: Inhibitory activity MSSK1; for inhibition at 0.1 µM: 100 nM
Protocol: as §1

[10] = biological target: MARK1 (Homo sapiens, UniProt Q9P0L2); assay: Kinome profiling MARK1; details: read-out: Inhibitory activity MARK1; for inhibition at 0.1 µM: 100 nM
Protocol: as §1

[11] = biological target: PAK5 (Homo sapiens, UniProt Q9P286); assay: Kinome profiling PAK5; details: read-out: Inhibitory activity PAK5; for inhibition at 0.1 µM: 100 nM
Protocol: as §1

[12] = biological target: ARG (ABL2) (Homo sapiens, UniProt P42684); assay: Kinome profiling ARG (ABL2); details: for inhibition at 0.1 µM: 100 nM
Protocol: as §1

[13] = biological target: ALK (Homo sapiens, UniProt Q9UM73); assay: Kinome profiling ALK; details: read-out: Inhibitory activity ALK; for inhibition at 0.1 µM: 100 nM
Protocol: as §1

[14] = biological target: PDGFRα (Homo sapiens, UniProt P16234); assay: Kinome profiling PDGFRα; details: read-out: Inhibitory activity PDGFRα; for inhibition at 0.1 µM: 100 nM
Protocol: as §1

[15] = biological target: PIM-2 (Homo sapiens, UniProt Q9P1W9); assay: Kinome profiling PIM-2; details: read-out: Inhibitory activity PIM-2; for inhibition at 0.1 µM: 100 nM
Protocol: as §1

[16] = biological target: FES (Homo sapiens, UniProt P07332); assay: Kinome profiling FES; details: read-out: Inhibitory activity FES; for inhibition at 0.1 µM: 100 nM
Protocol: as §1

[17] = biological target: RSK1 (Homo sapiens, UniProt Q15418); assay: Kinome profiling RSK1; details: read-out: Inhibitory activity RSK1; for inhibition at 0.1 µM: 100 nM
Protocol: as §1

[18] = biological target: FGFR1 (Homo sapiens, UniProt P11362); assay: Kinome profiling FGFR1; details: read-out: Inhibitory activity FGFR1; for inhibition at 0.1 µM: 100 nM
Protocol: as §1

[19] = biological target: T1, TSSK2 (Homo sapiens, UniProt Q96PF2); assay: Kinome profiling TSSK2; details: read-out: Inhibitory activity TSSK2; for inhibition at 0.1 µM: 100 nM
T1 sequence (Q96PF2 1-358): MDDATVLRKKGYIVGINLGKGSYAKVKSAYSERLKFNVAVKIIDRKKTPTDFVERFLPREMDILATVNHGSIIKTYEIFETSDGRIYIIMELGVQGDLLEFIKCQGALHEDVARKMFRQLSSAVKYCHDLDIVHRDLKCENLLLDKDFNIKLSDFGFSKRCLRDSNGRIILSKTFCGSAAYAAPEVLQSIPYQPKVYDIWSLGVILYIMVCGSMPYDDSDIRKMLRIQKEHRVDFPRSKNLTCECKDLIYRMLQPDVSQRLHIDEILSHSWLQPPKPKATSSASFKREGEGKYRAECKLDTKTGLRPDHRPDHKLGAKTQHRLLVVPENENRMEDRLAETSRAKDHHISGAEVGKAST
Protocol: as §1

[20] = biological target: MRCK-β (Homo sapiens, UniProt Q9Y5S2); assay: Kinome profiling MRCK-β; details: read-out: Inhibitory activity MRCK-β; for inhibition at 0.1 µM: 100 nM
Protocol: as §1

[21] = biological target: PKA (Homo sapiens, UniProt P17612); assay: Kinome profiling PKA; details: read-out: Inhibitory activity PKA; for inhibition at 0.1 µM: 100 nM
Protocol: as §1

[22] = biological target: GRK6 (Homo sapiens, UniProt P43250); assay: Kinome profiling GRK6; details: read-out: Inhibitory activity GRK6; for inhibition at 0.1 µM: 100 nM
Protocol: as §1

[23] = biological target: CDK4/cyclinD (Homo sapiens, UniProt P11802); assay: Kinome profiling CDK4/cyclinD; details: read-out: Inhibitory activity CDK4/cyclinD; for inhibition at 0.1 µM: 100 nM
Protocol: as §1

[24] = read-out: Inhibitory activity ARG (ABL2)
[25] = Table 4, read-out: Inhibitory Activity ARG

Chain of PAK5 (Q9P286 whole entry): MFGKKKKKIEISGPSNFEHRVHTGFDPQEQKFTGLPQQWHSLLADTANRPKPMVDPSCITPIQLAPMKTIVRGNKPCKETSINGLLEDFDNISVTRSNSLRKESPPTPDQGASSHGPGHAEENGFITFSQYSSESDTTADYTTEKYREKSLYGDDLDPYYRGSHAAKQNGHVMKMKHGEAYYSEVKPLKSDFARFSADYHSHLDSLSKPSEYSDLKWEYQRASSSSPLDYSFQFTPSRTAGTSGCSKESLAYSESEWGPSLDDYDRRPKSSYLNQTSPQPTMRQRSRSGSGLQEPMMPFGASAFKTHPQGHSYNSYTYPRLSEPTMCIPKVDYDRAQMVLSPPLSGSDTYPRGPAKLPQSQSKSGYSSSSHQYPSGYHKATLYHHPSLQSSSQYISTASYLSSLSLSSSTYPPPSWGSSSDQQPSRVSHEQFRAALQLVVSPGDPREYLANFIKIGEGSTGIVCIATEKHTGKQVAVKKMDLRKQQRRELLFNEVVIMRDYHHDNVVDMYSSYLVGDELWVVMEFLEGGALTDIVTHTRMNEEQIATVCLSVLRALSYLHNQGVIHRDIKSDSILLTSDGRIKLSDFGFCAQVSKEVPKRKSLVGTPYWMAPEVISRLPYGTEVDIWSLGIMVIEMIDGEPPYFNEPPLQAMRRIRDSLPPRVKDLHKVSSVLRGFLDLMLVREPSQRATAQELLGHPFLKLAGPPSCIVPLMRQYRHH
Chain of FGFR1 (P11362 22-822): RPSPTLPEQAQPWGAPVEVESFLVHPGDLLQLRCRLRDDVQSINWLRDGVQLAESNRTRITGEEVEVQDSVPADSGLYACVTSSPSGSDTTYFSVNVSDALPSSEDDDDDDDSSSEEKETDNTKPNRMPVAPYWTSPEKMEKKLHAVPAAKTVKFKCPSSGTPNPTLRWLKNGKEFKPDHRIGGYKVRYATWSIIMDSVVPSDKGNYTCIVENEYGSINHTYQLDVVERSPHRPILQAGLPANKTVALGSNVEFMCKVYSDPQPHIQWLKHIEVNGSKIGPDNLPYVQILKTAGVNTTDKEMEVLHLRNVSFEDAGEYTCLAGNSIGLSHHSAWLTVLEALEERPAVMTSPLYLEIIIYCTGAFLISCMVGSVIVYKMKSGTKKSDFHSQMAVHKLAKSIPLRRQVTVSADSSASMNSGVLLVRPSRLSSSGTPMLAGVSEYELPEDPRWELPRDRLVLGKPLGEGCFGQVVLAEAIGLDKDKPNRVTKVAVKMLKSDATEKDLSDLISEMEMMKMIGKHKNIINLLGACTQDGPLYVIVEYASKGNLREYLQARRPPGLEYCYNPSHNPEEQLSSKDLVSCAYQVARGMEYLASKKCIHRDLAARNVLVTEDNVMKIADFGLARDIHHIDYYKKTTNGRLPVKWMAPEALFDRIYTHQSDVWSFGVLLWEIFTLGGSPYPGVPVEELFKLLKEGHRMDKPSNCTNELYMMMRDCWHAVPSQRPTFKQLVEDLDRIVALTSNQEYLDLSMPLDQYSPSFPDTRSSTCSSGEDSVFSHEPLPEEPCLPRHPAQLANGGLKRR
Chain of PIM-2 (Q9P1W9 whole entry): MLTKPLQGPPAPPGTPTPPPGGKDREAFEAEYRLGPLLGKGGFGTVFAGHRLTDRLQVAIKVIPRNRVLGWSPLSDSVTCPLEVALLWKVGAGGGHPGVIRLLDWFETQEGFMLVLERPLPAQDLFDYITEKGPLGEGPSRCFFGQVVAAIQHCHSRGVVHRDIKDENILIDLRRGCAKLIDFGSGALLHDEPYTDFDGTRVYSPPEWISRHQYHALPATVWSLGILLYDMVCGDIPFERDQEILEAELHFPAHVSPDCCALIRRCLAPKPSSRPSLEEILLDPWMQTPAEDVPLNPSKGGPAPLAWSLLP
Chain of ARG (ABL2) (P42684 whole entry): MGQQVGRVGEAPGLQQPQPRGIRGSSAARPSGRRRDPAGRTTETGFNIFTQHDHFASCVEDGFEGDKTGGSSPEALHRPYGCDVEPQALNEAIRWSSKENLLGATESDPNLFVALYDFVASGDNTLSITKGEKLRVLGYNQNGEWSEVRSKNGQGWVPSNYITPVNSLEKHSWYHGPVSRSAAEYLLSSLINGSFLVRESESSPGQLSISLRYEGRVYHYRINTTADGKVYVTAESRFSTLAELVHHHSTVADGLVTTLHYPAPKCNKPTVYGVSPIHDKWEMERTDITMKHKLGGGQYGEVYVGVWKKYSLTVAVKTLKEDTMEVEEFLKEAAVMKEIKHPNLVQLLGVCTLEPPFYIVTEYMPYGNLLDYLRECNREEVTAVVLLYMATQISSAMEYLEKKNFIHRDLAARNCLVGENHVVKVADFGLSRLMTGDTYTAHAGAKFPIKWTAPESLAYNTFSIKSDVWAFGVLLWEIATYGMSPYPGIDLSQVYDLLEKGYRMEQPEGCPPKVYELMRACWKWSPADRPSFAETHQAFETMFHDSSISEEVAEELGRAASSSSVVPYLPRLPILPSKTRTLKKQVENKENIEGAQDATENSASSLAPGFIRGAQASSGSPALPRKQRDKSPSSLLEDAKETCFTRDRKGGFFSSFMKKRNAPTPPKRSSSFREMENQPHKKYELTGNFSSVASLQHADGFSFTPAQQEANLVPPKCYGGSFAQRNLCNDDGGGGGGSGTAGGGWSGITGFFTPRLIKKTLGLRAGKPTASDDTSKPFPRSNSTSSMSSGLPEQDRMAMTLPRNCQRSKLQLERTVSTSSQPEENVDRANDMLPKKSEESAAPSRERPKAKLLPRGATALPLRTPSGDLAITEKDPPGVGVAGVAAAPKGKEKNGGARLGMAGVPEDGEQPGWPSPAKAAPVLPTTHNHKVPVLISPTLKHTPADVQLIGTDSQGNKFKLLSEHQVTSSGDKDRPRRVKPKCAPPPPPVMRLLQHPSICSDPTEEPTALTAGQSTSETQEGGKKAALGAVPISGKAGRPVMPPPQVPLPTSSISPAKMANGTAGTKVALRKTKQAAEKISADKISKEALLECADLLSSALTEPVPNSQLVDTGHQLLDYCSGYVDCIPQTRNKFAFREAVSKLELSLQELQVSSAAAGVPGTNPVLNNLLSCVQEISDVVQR
Chain of FES (P07332 whole entry): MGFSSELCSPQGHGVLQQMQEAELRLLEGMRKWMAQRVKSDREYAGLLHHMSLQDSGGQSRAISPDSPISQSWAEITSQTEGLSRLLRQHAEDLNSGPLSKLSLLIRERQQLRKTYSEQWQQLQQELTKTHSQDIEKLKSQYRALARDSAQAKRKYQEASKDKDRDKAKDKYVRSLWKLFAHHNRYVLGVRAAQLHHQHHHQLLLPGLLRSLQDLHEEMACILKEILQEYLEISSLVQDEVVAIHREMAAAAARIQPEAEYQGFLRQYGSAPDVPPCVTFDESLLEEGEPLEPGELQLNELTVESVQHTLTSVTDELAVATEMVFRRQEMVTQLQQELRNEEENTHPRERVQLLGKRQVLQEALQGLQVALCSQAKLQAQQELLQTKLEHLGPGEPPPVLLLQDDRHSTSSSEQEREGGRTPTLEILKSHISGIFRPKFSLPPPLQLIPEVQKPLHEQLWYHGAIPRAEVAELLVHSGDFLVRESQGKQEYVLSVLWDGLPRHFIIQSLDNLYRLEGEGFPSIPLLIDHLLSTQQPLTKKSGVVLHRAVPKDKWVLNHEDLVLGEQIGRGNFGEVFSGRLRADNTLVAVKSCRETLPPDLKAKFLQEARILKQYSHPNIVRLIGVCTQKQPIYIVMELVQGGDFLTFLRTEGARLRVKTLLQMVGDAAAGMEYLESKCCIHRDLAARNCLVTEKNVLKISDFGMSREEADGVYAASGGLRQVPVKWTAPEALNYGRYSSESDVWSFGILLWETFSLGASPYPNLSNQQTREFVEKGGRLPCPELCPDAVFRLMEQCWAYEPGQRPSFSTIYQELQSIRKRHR
Chain of CDK4/cyclinD (P11802 whole entry): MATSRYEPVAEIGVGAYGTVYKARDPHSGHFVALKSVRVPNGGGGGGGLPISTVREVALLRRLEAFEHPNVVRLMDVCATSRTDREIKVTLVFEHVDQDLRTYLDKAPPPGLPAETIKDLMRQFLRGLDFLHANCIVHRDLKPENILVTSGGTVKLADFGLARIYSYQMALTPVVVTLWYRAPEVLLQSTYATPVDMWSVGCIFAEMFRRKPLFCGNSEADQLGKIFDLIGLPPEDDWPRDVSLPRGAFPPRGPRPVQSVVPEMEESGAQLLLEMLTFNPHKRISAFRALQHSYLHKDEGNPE
Chain of CDK4/cyclinD (P24385 whole entry partner): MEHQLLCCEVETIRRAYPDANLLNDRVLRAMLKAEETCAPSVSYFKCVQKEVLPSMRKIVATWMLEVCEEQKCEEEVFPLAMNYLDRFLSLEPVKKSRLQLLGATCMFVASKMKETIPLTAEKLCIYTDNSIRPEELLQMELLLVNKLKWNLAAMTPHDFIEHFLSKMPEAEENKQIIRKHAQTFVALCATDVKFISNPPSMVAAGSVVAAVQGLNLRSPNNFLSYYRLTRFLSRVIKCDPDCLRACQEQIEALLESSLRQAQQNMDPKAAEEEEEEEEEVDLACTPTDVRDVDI
Chain of PIM-1 (P11309 whole entry): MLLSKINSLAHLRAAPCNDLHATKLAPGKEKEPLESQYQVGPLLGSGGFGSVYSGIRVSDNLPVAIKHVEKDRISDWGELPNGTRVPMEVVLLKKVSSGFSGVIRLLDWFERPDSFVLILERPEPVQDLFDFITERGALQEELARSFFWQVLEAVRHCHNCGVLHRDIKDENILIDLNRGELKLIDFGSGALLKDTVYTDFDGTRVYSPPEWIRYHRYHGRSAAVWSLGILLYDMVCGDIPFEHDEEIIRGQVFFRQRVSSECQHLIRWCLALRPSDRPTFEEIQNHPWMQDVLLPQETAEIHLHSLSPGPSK

COc1cc(-c2cc(-c3ccc(N4CCNCC4)cc3)cnc2N)cc(OC)c1OC [Compound 15, 5-(4-(piperazin-1-yl)phenyl)-3-(3,4,5-trimethoxyphenyl)pyridin-2-amine]
inhibition at 0.1 µM [1]: 3%
inhibition at 1 µM [1]: 5%
inhibition at 0.1 µM [2]: 2%
inhibition at 1 µM [2]: 1%
inhibition at 0.1 µM [3]: 1%
inhibition at 1 µM [3]: -1%
inhibition at 0.1 µM [4]: 0%
inhibition at 1 µM [4]: -1%
inhibition at 0.1 µM [5]: 1%
inhibition at 1 µM [5]: 2%
inhibition at 0.1 µM [6]: 1%
inhibition at 1 µM [6]: -1%
inhibition at 0.1 µM [7]: 0%
inhibition at 1 µM [7]: 0%
inhibition at 0.1 µM [8]: 7%
inhibition at 1 µM [8]: 30%
inhibition at 0.1 µM [9]: -2%
inhibition at 1 µM [9]: 0%
inhibition at 0.1 µM [10]: 3%
inhibition at 1 µM [10]: 31%
inhibition at 0.1 µM [11]: 9%
inhibition at 1 µM [11]: 6%
inhibition at 0.1 µM [12, 24]: 60%
inhibition at 1 µM [12, 24]: 81%
inhibition at 0.1 µM [13]: 6%
inhibition at 1 µM [13]: 36%
inhibition at 0.1 µM [14]: 39%
inhibition at 1 µM [14]: 76%
inhibition at 0.1 µM [15]: 0%
inhibition at 1 µM [15]: 0%
inhibition at 0.1 µM [16]: 3%
inhibition at 1 µM [16]: 4%
inhibition at 0.1 µM [17]: 1%
inhibition at 1 µM [17]: 5%
inhibition at 0.1 µM [18]: 3%
inhibition at 1 µM [18]: 8%
inhibition at 0.1 µM [19]: 1%
inhibition at 1 µM [19]: 1%
inhibition at 0.1 µM [20]: 3%
inhibition at 1 µM [20]: 22%
inhibition at 0.1 µM [21]: 1%
inhibition at 1 µM [21]: 2%
inhibition at 0.1 µM [22]: 0%
inhibition at 1 µM [22]: 0%
inhibition at 0.1 µM [23]: 1%
inhibition at 1 µM [23]: 3%

COc1cc(-c2cc(-c3ccc(N4CCNCC4)cc3)cnc2C)cc(OC)c1OC [Compound 10, 1-(4-(6-methyl-5-(3,4,5-trimethoxyphenyl)pyridin-3-yl)phenyl)piperazine]
inhibition at 0.1 µM [1]: 8%
inhibition at 1 µM [1]: 16%
inhibition at 0.1 µM [2]: 3%
inhibition at 1 µM [2]: 4%
inhibition at 0.1 µM [3]: 0%
inhibition at 1 µM [3]: 1%
inhibition at 0.1 µM [4]: 1%
inhibition at 1 µM [4]: 0%
inhibition at 0.1 µM [5]: 4%
inhibition at 1 µM [5]: 1%
inhibition at 0.1 µM [6]: 2%
inhibition at 1 µM [6]: 2%
inhibition at 0.1 µM [7]: 1%
inhibition at 1 µM [7]: 1%
inhibition at 0.1 µM [8]: 1%
inhibition at 1 µM [8]: 10%
inhibition at 0.1 µM [9]: 2%
inhibition at 1 µM [9]: 2%
inhibition at 0.1 µM [10]: 0%
inhibition at 1 µM [10]: 2%
inhibition at 0.1 µM [11]: 1%
inhibition at 1 µM [11]: 1%
inhibition at 0.1 µM [12, 25]: 17%
inhibition at 0.1 µM [12, 24]: 17%
inhibition at 1 µM [12, 25]: 62%
inhibition at 1 µM [12, 24]: 62%
inhibition at 0.1 µM [13]: 2%
inhibition at 1 µM [13]: 7%
inhibition at 0.1 µM [14]: 9%
inhibition at 1 µM [14]: 40%
inhibition at 0.1 µM [15]: 0%
inhibition at 1 µM [15]: 0%
inhibition at 0.1 µM [16]: 7%
inhibition at 1 µM [16]: 9%
inhibition at 0.1 µM [17]: 1%
inhibition at 1 µM [17]: 1%
inhibition at 0.1 µM [18]: 5%
inhibition at 1 µM [18]: 5%
inhibition at 0.1 µM [19]: 4%
inhibition at 1 µM [19]: 4%
inhibition at 0.1 µM [20]: 0%
inhibition at 1 µM [20]: 0%
inhibition at 0.1 µM [21]: 1%
inhibition at 1 µM [21]: 3%
inhibition at 0.1 µM [22]: 8%
inhibition at 1 µM [22]: 3%
inhibition at 0.1 µM [23]: -3%
inhibition at 1 µM [23]: 2%
